This note sets out measurements from patent publication US20140128399A1, “METHODS AND COMPOSITIONS FOR TREATING URINARY TRACT INFECTIONS USING AGENTS THAT MIMIC OR ELEVATE CYCLIC AMP” (DUKE UNIVERSITY, priority 2007, published 2014).

Structures are written as SMILES.

Holding throughout (type): cell-based, human
For experiment [1], the system named is E. coli ORN103(pSH2) within 5637 BECs. The experiment in a line: Intracellular bacteria survival assay (antibiotic protection). Particulars: NH4Cl 10 mM, 50 mM; Bafilomycin 1 μM. On the procedure:
In this assay, 5637 BECs were infected with ORN103(pSH2) E. coli diluted in RPMI 1640 medium at a multiplicity of infection (MOI) of 100:1. Cells were centrifuged for 5 min at 600 g, and incubated for 60 min at 37° C. Next, the cells were incubated with 100 μg/ml of gentamicin (Invitrogen) in RPMI medium for 30 min, and then with 10 μg/ml gentamicin in RPMI medium. At each time point, the cells were washed using PBS, solubilized with 0.1% Triton X-100 in PBS and plated for colony counts.

The test system of experiment [2] is E. coli ORN103(pSH2)-infected 5637 BECs. The experiment in a line: Bacterial exocytosis assay. Particulars: inhibitors added during gentamicin incubation; H89 10 μM, NiCl2. On the procedure: In this assay, 5637 BECs were infected with bacteria as above. Infection continued for 60 min, and then the cells were washed with culture medium (including 100 μg/ml gentamicin and 100 mM methyl α-D-mannopyranoside (Sigma, St. Louis, Mo.)) for an additional 30 min. The cells were then washed twice and then allowed to incubate for 1-4 h with fresh culture medium containing 100 mM methyl α-D-mannopyranoside. At each time point, the culture medium and one wash of 100 μl of culture medium with methyl α-D-mannopyranoside were collected and pooled. The inhibitors H89 (10 μM) and NiCl2 ([…]) were added during the gentamicin incubation and left in the culture medium. All homogenates and pooled culture medium were cultured for colony counts. All exocytosis assays had n=12 wells of a 96-well plate.

In a further experiment the test system is 5637 BECs. The experiment in a line: β-hexosaminidase release assay. The following applies: for release of β-hexosaminidase from E. coli-infected BECs: E. coli ORN103(pSH2)-infected 5637 BECs, NiCl2 2 mM, H89 10 μM; for release of β-hexosaminidase into extracellular media: uninfected 5637 BECs, 1 hr, forskolin 100 μM, dibutyryl-cAMP 1 mM, calcium ionophore 1 μM.

`CO/C1=C\C(C)=C\[C@@H](C)[C@@H](O)[C@@H](C)C/C(C)=C/C=C/[C@H](OC)[C@@H]([C@@H](C)[C@@H](O)[C@H](C)[C@@]2(O)C[C@@H](O)[C@H](C)[C@@H](C(C)C)O2)OC1=O` [Bafilomycin]: the “E. coli ORN103(pSH2) persistence within 5637 BECs” value in experiment [1] is given as “caused no improvement”.
Turning to `O=S(=O)(NCCNC/C=C/c1ccc(Br)cc1)c1cccc2cnccc12` [H89], the “E. coli ORN103(pSH2) exocytosis into antibiotic-free medium” value in experiment [2] is recorded as “reduced”. For the same molecule, in the experiment with 5637 BECs, the “release of β-hexosaminidase from E. coli-infected BECs” value is given as “regulatable”.
Regarding `Cl.N` [NH4Cl], the “E. coli ORN103(pSH2) persistence within 5637 BECs” value in experiment [1] was “caused no improvement”.
On to `[Cl][Ni][Cl]` [NiCl2], for which the “E. coli ORN103(pSH2) exocytosis into antibiotic-free medium” value in experiment [2] is reported as “reduced”. In addition, the “release of β-hexosaminidase from E. coli-infected BECs” value with 5637 BECs is listed as “regulatable”.
For the molecule `C[C@H](CCC(=O)O)C[C@H](C)C[C@H](C)C(=O)/C=C(\O)[C@H](C)C[C@H](C)C/C=C/[C@@H](C)[C@@H](O)[C@@H](C)[C@@H](O)C[C@@H]1CC[C@@](C)([C@H]2CC[C@@](C)([C@@H](C)O)O2)O1` [calcium ionophore, ionomycin], the “release of β-hexosaminidase into extracellular media” value with 5637 BECs was “stimulated the BECs to release appreciable levels of β-hexosaminidase”.
Regarding `CCCC(=O)Nc1ncnc2c1ncn2[C@@H]1O[C@@H]2COP(=O)(O)O[C@H]2[C@H]1OC(=O)CCC` [dibutyryl-cAMP], the “release of β-hexosaminidase into extracellular media” value in the experiment with 5637 BECs is recorded as “stimulated the BECs to release appreciable levels of β-hexosaminidase”.
